Experimental data reported in patent US20240165104A1, “TREATMENT OF DEPRESSION” (priority 2021, published 2024).
Where a name gives a salt, the structure may show the parent alone. Read-outs that look alike come from different tables or passages of the source.

Experiments:
[1] = Plasma drug concentration cutoffs for treatment adherence; conditions: human, in vivo
Procedure: (§1) In the patients of Example 1, plasma samples were collected after up to 6 weeks of treatment in the clinical trial (end of treatment visit) and analyzed.
(§2) The selected drug concentration cutoffs approximate the lowest observed concentrations 24 hours after the last dose of the study drug under 100% adherent conditions. The 15 ng/mL threshold at 24 hours after the last dose corresponds to a plasma concentration of about 19 ng/mL at about 12 hours after a dose that is administered after steady state has been achieved (e.g., day 42).

[2] = Solubility of the drug powder in water
[3] = Pharmacokinetics after administration of the subject combination; conditions: for accumulation ratio at steady state based on AUC0-12 / accumulation ratio at steady state based on Cmax: given as the subject combination; for AUC0-12 of metabolite relative to that of bupropion / Cmax of metabolite relative to peak level of bupropion: after administration of the subject combination; for apparent elimination half-life (metabolites): in vivo
Plasma protein binding = assay type: in vitro ADME; conditions: plasma
[4] = system: treatment-adherent patients with treatment-resistant depression; test: Analysis of treatment-adherent patients of the Phase 3 trial (Example 2); conditions: both, human, in vivo, 6 weeks
Procedure: It was discovered in this study that measurement of plasma drug concentrations is a direct method of assessing treatment adherence.
as §1, §2
Other efficacy assessments included Quick Inventory Depressive Symptoms-Self Report (QIDS-SR-16), Hamilton Anxiety Rating Scale, and Cognition and Physical Functioning Questionnaire (CPFQ).
Demographics and baseline characteristics were similar across both treatment groups.

[5] = system: patients with treatment resistant depression (TRD); test: Phase 3 randomized double-blind active controlled trial of DM/BU in treatment resistant depression (Example 1); assay type: in vivo, human
Description: Inclusion criteria for the open-label period included males or females 18-65 years of age, a history of inadequate response to 1 or 2 prior antidepressant treatments, established by the Antidepressant Treatment Response Questionnaire (ATRQ), and a Hamilton Depression Rating Scale (HAMD-17) total score of ≥18. Inclusion criteria for the double-blind period included inadequate response to 2 or 3 prior antidepressant treatments, including open-label period failure. Exclusion criteria included a history of electroconvulsive therapy, vagus nerve stimulation, transcranial magnetic stimulation or any experimental central nervous system treatment during the current episode or in the past 6 months, schizophrenia, bipolar disorder, obsessive compulsive disorder, psychiatric symptoms secondary to any other general medical condition.
The change in depressive symptoms over time was measured using the Montgomery-Åsberg Depression Rating Scale (MADRS) and the Quick Inventory of Depressive Symptomatology-Self-Rated (QIDS-SR-16). The primary endpoint was the change from baseline in the MADRS after 6 weeks of treatment. The key secondary endpoints were the change from baseline in the MADRS after 1 week of treatment, after 2 weeks of treatment, the average change over entire 6-week double-blind treatment period, and the Sheehan Disability Scale (SDS). Other pre-specified secondary efficacy variables included the Cognitive subscale of the Massachusetts General Hospital Cognitive and Physical Functioning Questionnaire (CPFQ), and the Hamilton Anxiety Scale (HAM-A).

plasma protein = test: Plasma protein binding; assay type: in vitro ADME; conditions: metabolites of bupropion
[6] = subject combination administered with food

COc1ccc2c(c1)[C@]13CCCC[C@@H]1[C@H](C2)N(C)CC3 [dextromethorphan, morphinan, 3-methoxy-17-methyl-, (9α, 13α, 14α), hydrobromide monohydrate]
concentration at 12 h ([1]; dose administered after steady state (e.g., day 42), read-out: corresponding plasma concentration at about 12 hours after a dose): ~19 ng/mL
concentration at 24 h ([1]; under 100% adherent conditions, read-out: plasma concentration cutoff approximating the lowest observed concentration 24 hours after the last dose): ~15 ng/mL
solubility in water [2]: sparingly soluble in water
increase of mean elimination half-life as compared to dextromethorphan given without bupropion ([3]; following 8 days of the subject combination, extensive metabolizers): approximately 3 fold
accumulation ratio at steady state based on AUC0-12 [3]: about 32
accumulation ratio at steady state based on Cmax [3]: about 20
change of Cmax with food [3, 6]: unchanged
decrease of AUC0-12 with food [3, 6]: 14%

CC(NC(C)(C)C)C(=O)c1cccc(Cl)c1.Cl (racemic) [bupropion, (±)-1-(3-chlorophenyl)-2-[(1,1-dimethylethyl)amino]-1-propanone hydrochloride]
fraction unbound (Plasma protein binding): 0.16
concentration at 24 h [1]: ~10 ng/mL
Blood pressure increased [4]: 0 (0.0%)
Dizziness [4]: 0 (0.0%)
Dry mouth [4]: 3 (2.3%)
Headache [4]: 6 (4.5%)
Nasopharyngitis [4]: 0 (0.0%)
Nausea [4]: 2 (1.5%)
Somnolence [4]: 2 (1.5%)
rate of discontinuation due to adverse events [4]: 0.8%
solubility in water [2]: highly soluble in water
rate of remission from depression (QIDS-SR-16≤5) at Week 6 ([5]; % of patients, p=0.012): 8.2%
rate of discontinuation due to adverse events ([5]; both, human, in vivo, 6 weeks): 1.9%
MADRS mean reduction averaged over the entire 6-week treatment period ([5]; key secondary endpoint, DM/BU n=154, bupropion n=155, p=0.031): 6.7
MADRS mean reduction at Week 1 ([5]; key secondary endpoint, p=0.02): 3.6
MADRS mean reduction at Week 2 ([5]; key secondary endpoint, p=0.035): 6.1
QIDS-SR-16 mean reduction averaged over the entire 6-week treatment period ([5]; p=0.013): 2.3
MADRS mean reduction at Week 6 ([5]; primary endpoint, p=0.117, did not reach statistical significance): 9.4
accumulation ratio at steady state based on AUC0-12 [3]: 1.5
accumulation ratio at steady state based on Cmax [3]: 1.1
Tmax ([3]; human, plasma, oral): ~2 h
increase of AUC0-12 with food [3, 6]: 6%
increase of Cmax with food [3, 6]: 3%

C[C@H]1NC(C)(C)CO[C@]1(O)c1cccc(Cl)c1 [hydroxybupropion]
AUC0-12 of metabolite relative to that of bupropion [3]: about 19 times
Cmax of metabolite relative to peak level of bupropion [3]: approximately 14 times
apparent elimination half-life (metabolites) ([3]; human): approximately 35 hours

CC(NC(C)(C)C)C(O)c1cccc(Cl)c1 (centres unmarked) [erythrohydroxybupropion]
AUC0-12 of metabolite relative to that of bupropion [3]: about 1.2 times
Cmax of metabolite relative to peak level of bupropion [3]: approximately equal to
apparent elimination half-life (metabolites) ([3]; human): ~44 h

C[C@H](NC(C)(C)C)[C@@H](O)c1cccc(Cl)c1 [threohydroxybupropion]
extent of protein binding compared with bupropion (plasma protein): about half that seen with bupropion
AUC0-12 of metabolite relative to that of bupropion [3]: about 7 times
Cmax of metabolite relative to peak level of bupropion [3]: about 5 times
apparent elimination half-life (metabolites) ([3]; human): ~33 h
